Laboratory results from ChEMBL document CHEMBL4024706 (Eur J Med Chem, 2017).

Experiments:
[1] = target: Myosin-IIIa (Homo sapiens) (UniProt Q8NEV4); assay: Inhibition of wild-type human partial length MYO3A (M1 to K338 residues) expressed in bacterial expression system assessed as residual activity at 1 uM by Kinomescan method relative to control
[2] = target: Receptor-interacting serine/threonine-protein kinase 2 (Homo sapiens) (UniProt O43353); assay: Inhibition of wild-type human partial length RIPK2 (M1 to K310 residues) expressed in bacterial expression system assessed as residual activity at 1 uM by Kinomescan method relative to control
[3] = test system: Tyrosine-protein kinase ABL1 (Homo sapiens), P00519 [H396P]; assay: Inhibition of human phosphorylated ABL1 H396P mutant (S229 to K512 residues) expressed in mammalian expression system assessed as residual activity at 1 uM by Kinomescan method relative to control
[4] = target: Phosphatidylinositol 4,5-bisphosphate 3-kinase catalytic subunit gamma isoform (Homo sapiens) (UniProt P48736); assay: Inhibition of wild-type human partial length PIK3CG (S144 to A1102 residues) expressed in mammalian expression system assessed as residual activity at 1 uM by Kinomescan method relative to control
Phosphatidylinositol 4,5-bisphosphate 3-kinase catalytic subunit gamma isoform (Homo sapiens), sequence (P48736 whole entry, looked up, the tested form may be a part, canonical isoform): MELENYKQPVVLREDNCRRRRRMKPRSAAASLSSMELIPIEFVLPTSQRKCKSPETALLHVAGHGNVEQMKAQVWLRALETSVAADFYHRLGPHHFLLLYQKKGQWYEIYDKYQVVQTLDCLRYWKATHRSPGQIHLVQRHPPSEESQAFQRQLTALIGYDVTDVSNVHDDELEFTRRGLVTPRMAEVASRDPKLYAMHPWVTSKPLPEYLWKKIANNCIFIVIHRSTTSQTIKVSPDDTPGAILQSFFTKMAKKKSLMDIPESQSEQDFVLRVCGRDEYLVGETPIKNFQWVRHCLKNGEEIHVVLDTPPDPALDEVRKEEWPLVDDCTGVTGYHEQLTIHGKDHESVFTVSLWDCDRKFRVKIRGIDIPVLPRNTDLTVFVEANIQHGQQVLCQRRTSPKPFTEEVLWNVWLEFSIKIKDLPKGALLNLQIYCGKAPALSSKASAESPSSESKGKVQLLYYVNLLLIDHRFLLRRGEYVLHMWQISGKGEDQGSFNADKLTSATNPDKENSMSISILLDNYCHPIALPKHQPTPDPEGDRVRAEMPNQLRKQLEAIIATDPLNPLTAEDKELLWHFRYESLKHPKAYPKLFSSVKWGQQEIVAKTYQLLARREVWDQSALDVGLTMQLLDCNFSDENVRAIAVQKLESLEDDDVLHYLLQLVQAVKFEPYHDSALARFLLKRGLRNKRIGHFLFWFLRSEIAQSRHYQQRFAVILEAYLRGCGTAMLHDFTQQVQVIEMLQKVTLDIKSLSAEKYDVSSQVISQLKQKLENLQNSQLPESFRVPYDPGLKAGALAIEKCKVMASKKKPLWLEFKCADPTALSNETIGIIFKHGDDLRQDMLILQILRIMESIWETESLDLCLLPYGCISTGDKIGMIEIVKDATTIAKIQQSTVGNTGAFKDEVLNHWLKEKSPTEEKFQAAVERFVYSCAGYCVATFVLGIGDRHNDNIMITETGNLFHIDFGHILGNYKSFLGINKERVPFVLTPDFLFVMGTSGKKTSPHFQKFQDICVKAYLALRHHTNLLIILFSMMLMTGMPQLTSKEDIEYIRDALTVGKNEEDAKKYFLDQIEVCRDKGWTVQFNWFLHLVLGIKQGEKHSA

[5] = target: Serine/threonine-protein kinase MARK2 (Homo sapiens) (UniProt Q7KZI7); assay: Inhibition of wild-type human partial length MARK2 (M1 to R450 residues) expressed in bacterial expression system assessed as residual activity at 1 uM by Kinomescan method relative to control
[6] = target: Serine/threonine-protein kinase 17A (Homo sapiens) (UniProt Q9UEE5); assay: Inhibition of wild-type human partial length DRAK1 (R32 to E363 residues) expressed in bacterial expression system assessed as residual activity at 1 uM by Kinomescan method relative to control
[7] = target: Serine/threonine-protein kinase WNK3 (Homo sapiens) (UniProt Q9BYP7); assay: Inhibition of wild-type human partial length WNK3 (M1 to D434 residues) expressed in mammalian expression system assessed as residual activity at 1 uM by Kinomescan method relative to control
[8] = target: Tyrosine-protein kinase Srms (Homo sapiens) (UniProt Q9H3Y6); assay: Inhibition of wild-type human partial length SRMS (L208 to P488 residues) expressed in mammalian expression system assessed as residual activity at 1 uM by Kinomescan method relative to control
[9] = target: Serine/threonine-protein kinase Nek1 (Homo sapiens) (UniProt Q96PY6); assay: Inhibition of wild-type human partial length NEK1 (M1 to K278 residues) expressed in bacterial expression system assessed as residual activity at 1 uM by Kinomescan method relative to control
[10] = target: TGF-beta receptor type-2 (Homo sapiens) (UniProt P37173); assay: Inhibition of wild-type human partial length TGFBR2 (I218 to K567 residues) expressed in bacterial expression system assessed as residual activity at 1 uM by Kinomescan method relative to control
TGF-beta receptor type-2 (Homo sapiens), sequence (P37173 whole entry, the tested form may be a part): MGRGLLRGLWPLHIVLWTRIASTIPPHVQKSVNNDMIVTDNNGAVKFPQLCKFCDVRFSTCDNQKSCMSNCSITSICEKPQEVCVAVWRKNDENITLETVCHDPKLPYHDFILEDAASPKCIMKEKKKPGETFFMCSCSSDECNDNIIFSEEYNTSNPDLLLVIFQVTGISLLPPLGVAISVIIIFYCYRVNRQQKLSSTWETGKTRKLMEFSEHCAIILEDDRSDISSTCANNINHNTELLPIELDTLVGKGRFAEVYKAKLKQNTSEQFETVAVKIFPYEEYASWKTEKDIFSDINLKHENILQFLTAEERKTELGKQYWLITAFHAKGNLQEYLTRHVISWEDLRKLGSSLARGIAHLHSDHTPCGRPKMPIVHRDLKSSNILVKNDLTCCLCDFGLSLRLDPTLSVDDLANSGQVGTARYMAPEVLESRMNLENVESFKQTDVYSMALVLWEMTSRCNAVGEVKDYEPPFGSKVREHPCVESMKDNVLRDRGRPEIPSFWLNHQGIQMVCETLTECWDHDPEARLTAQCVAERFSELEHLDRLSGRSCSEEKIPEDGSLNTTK

[11] = target: Macrophage colony-stimulating factor 1 receptor (Homo sapiens) (UniProt P07333); assay: Inhibition of wild-type human partial length CSF1R (I564 to S939 residues) expressed in bacterial expression system assessed as residual activity at 1 uM by Kinomescan method relative to control
Macrophage colony-stimulating factor 1 receptor (Homo sapiens), sequence (P07333 whole entry, the tested form may be a part): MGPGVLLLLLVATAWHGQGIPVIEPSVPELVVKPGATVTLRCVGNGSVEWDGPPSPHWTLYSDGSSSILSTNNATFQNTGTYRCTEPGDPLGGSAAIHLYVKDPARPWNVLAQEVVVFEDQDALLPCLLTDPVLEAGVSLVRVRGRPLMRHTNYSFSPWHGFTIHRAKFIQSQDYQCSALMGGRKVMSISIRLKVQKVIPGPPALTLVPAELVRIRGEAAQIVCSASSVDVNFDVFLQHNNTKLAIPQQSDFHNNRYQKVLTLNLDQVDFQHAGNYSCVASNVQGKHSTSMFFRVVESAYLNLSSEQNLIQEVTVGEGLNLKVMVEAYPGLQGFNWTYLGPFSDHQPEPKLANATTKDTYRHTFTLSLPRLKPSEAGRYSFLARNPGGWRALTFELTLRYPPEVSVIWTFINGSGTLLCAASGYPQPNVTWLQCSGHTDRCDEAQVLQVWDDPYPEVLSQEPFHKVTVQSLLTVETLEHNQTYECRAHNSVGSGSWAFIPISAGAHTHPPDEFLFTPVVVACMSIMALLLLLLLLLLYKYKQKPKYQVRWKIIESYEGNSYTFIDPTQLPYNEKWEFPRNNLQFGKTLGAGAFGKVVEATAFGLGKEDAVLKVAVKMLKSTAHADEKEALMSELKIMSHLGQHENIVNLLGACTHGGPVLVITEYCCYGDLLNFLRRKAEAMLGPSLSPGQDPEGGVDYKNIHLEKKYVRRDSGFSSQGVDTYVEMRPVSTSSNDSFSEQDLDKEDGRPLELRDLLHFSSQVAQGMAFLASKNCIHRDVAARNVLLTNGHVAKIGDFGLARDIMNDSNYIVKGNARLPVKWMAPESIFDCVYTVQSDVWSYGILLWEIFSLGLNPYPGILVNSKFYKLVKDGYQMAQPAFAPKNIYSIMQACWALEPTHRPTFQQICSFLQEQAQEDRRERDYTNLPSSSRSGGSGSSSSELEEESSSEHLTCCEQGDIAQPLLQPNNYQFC

[12] = test system: Tyrosine-protein kinase ABL1 (Homo sapiens), P00519 [T315I]; assay: Inhibition of human non-phosphorylated ABL1 T315I mutant (S229 to K512 residues) expressed in mammalian expression system assessed as residual activity at 1 uM by Kinomescan method relative to control
[13] = test system: Tyrosine-protein kinase ABL1 (Homo sapiens), P00519 [T315I]; assay: Inhibition of human phosphorylated ABL1 T315I mutant (S229 to K512 residues) expressed in mammalian expression system assessed as residual activity at 1 uM by Kinomescan method relative to control
[14] = target: Serine/threonine-protein kinase 25 (Homo sapiens) (UniProt O00506); assay: Inhibition of wild-type human partial length YSK1 (V14 to H295 residues) expressed in bacterial expression system assessed as residual activity at 1 uM by Kinomescan method relative to control
Serine/threonine-protein kinase 25 (Homo sapiens), sequence (O00506 whole entry, looked up, the tested form may be a part): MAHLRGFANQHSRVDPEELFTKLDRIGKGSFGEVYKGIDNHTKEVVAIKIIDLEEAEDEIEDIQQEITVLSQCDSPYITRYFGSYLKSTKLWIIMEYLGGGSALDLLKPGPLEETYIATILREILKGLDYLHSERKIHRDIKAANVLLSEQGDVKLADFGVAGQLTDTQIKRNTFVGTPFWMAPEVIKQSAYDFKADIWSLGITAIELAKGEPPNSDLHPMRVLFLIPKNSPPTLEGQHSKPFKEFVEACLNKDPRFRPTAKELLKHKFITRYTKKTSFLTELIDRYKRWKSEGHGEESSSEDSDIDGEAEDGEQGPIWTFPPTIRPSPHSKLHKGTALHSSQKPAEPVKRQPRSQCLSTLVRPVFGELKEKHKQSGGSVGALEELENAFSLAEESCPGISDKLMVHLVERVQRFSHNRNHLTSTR

[15] = target: Calcium/calmodulin-dependent protein kinase type 1D (Homo sapiens) (UniProt Q8IU85); assay: Inhibition of wild-type human partial length CAMK1D (M1 to K299 residues) expressed in bacterial expression system assessed as residual activity at 1 uM by Kinomescan method relative to control
[16] = target: Serine/threonine-protein kinase LATS1 (Homo sapiens) (UniProt O95835); assay: Inhibition of wild-type human partial length LATS1 (Q678 to V1130 residues) expressed in bacterial expression system assessed as residual activity at 1 uM by Kinomescan method relative to control
[17] = target: Mitogen-activated protein kinase 11 (Homo sapiens) (UniProt Q15759); assay: Inhibition of wild-type human full length p38-beta (M1 to Q364 residues) expressed in bacterial expression system assessed as residual activity at 1 uM by Kinomescan method relative to control
[18] = target: Mitogen-activated protein kinase kinase kinase 20 (Homo sapiens) (UniProt Q9NYL2); assay: Inhibition of wild-type human partial length ZAK (M1 to L331 residues) expressed in bacterial expression system assessed as residual activity at 1 uM by Kinomescan method relative to control
Mitogen-activated protein kinase kinase kinase 20 (Homo sapiens), sequence (Q9NYL2 2-800 limits assumed): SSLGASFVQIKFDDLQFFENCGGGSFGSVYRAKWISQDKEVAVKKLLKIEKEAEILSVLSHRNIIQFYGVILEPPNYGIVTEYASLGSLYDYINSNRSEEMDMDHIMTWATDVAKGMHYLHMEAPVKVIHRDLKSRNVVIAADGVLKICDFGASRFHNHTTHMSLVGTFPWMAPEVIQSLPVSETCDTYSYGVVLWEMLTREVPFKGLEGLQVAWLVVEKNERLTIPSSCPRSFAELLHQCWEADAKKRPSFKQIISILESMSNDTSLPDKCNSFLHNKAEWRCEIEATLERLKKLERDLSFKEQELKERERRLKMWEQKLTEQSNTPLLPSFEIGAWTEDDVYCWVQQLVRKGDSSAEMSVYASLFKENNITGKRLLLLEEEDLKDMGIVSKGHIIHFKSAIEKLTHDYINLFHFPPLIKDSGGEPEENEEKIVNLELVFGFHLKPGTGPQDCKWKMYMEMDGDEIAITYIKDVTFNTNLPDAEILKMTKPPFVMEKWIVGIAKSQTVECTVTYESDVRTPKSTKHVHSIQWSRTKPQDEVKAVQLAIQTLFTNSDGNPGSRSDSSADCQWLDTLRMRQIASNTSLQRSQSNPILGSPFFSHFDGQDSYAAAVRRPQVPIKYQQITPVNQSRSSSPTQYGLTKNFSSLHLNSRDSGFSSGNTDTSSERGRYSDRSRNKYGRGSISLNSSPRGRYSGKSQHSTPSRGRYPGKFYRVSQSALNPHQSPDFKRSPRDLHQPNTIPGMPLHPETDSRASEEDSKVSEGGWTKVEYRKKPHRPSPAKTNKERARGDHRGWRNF

[19] = target: Serine/threonine-protein kinase 17B (Homo sapiens) (UniProt O94768); assay: Inhibition of wild-type human full length DRAK2 (M1 to C372 residues) expressed in bacterial expression system assessed as residual activity at 1 uM by Kinomescan method relative to control
[20] = target: Serine/threonine-protein kinase NIM1 (Homo sapiens) (UniProt Q8IY84); assay: Inhibition of wild-type human partial length NIM1 (Q44 to N355 residues) expressed in mammalian expression system assessed as residual activity at 1 uM by Kinomescan method relative to control
[21] = target: Tyrosine-protein kinase JAK1 (Homo sapiens) (UniProt P23458); assay: Inhibition of wild-type human partial length JAK1 JH2 pseudokinase domain (R537 to D855 residues) expressed in mammalian expression system assessed as residual activity at 1 uM by Kinomescan method relative to control
[22] = target: Serine/threonine-protein kinase LATS2 (Homo sapiens) (UniProt Q9NRM7); assay: Inhibition of wild-type human partial length LATS2 (Q641 to V1088 residues) expressed in mammalian expression system assessed as residual activity at 1 uM by Kinomescan method relative to control
[23] = target: Serine/threonine-protein kinase 3 (Homo sapiens) (UniProt Q13188); assay: Inhibition of wild-type human partial length MST2 (D17 to E318 residues) expressed in bacterial expression system assessed as residual activity at 1 uM by Kinomescan method relative to control
Serine/threonine-protein kinase 3 (Homo sapiens), sequence (Q13188 whole entry, the tested form may be a part): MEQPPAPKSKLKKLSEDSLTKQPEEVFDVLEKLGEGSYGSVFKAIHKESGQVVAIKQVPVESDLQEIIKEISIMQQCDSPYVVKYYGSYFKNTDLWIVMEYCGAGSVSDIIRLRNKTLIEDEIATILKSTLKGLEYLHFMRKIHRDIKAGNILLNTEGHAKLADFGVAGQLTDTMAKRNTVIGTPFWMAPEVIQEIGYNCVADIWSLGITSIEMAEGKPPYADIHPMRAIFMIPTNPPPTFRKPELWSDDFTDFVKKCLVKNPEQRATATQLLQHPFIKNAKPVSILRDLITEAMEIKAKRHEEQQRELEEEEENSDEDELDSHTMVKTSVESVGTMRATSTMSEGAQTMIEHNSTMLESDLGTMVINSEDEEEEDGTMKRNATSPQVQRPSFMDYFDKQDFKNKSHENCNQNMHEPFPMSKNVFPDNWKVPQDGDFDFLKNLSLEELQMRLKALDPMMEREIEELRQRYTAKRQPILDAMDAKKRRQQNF

[24] = target: Serine/threonine-protein kinase Chk2 (Homo sapiens) (UniProt O96017); assay: Inhibition of wild-type human partial length CHEK2 (S253 to E574 residues) expressed in bacterial expression system assessed as residual activity at 1 uM by Kinomescan method relative to control
Serine/threonine-protein kinase Chk2 (Homo sapiens), sequence (O96017 whole entry, the tested form may be a part): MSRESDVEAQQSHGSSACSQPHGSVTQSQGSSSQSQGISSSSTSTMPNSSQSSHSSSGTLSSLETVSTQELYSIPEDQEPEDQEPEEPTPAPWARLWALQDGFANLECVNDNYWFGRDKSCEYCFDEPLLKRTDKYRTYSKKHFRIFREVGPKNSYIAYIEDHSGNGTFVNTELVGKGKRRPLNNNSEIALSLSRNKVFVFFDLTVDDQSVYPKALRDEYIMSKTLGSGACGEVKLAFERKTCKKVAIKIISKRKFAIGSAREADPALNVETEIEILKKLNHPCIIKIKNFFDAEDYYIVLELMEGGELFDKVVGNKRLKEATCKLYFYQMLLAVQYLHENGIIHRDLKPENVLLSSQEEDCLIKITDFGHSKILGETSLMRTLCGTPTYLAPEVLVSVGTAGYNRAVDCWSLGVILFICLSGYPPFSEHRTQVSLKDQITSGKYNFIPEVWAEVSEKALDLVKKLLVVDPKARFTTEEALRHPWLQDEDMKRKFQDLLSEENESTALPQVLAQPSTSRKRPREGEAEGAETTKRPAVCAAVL

[25] = Cmax in Sprague-Dawley rat at 10 mg/kg, po by LC-MS/MS method; type: ADME, organism-based; set-up: dose 10 mg/kg, route oral; conditions: in vivo
U-937 = assay: Growth inhibition of human U937 cells; type: functional; conditions: Homo sapiens, U-937

Q: Which results are given for `C=CC(=O)Nc1cc(Nc2cc(-c3cccc(NC(=O)c4ccc(C(C)(C)C)cc4)c3C)cn(C)c2=O)ccc1C(=O)N1CCOCC1`?
A: Activity [1]: 95%; Activity [2]: 62%; Activity [3]: 100%; Activity [4]: 100%; Activity [5]: 99%; Activity [6]: 82%; Activity [7]: 94%; Activity [8]: 100%; Activity [9]: 100%; Activity [10]: 90%; Activity [11]: 86%; Activity [12]: 99%; Activity [13]: 93%; Activity [14]: 96%; Activity [15]: 97%; Activity [16]: 74%; Activity [17]: 100%; Activity [18]: 94%; Activity [19]: 94%; Activity [20]: 100%; Activity [21]: 86%; Activity [22]: 100%; Activity [23]: 87%; Activity [24]: 87%; Cmax [25]: 32.8 ng/mL; GI50 (U-937): 4.8 µM
